In this test the test system is T1, BaAXE (Gene_id_40363).
T1 construct: full-length 654 bp PCR product (about 218 residues), pDEST42, C-terminal 6xHis, E. coli BL21(DE3), 27 kDa by SDS-PAGE; forward primer CACCATGAAACATGACCAC encodes N-terminus MKHDH
The test can be described thus: spectrophotometric 4-nitrophenol release at […] nm, nonlinear Michaelis-Menten fit. Format: biochemical. The note with it: pH 8, 0.1-2 mM substrate; temperature not told for kinetics (standard assay 40 °C, 50 mM sodium phosphate, 150 mM NaCl, 0.01% Triton X-100).

Structures are written as SMILES.

As a reminder, the Km is the concentration of substrate that gives half-maximal velocity.

On to `CC(=O)Oc1ccc([N+](=O)[O-])cc1` [4-NPA, 4-nitrophenyl acetate], for which the Km was 430 µM.

The record behind these values is PMC9104356, “Characterisation of a Novel Acetyl Xylan Esterase (BaAXE) Screened from the Gut Microbiota of the Common Black Slug (Arion ater)” (Molecules, 2022).
